Data from patent EP1988171A1, “SUBSTANCE FKI-2342 AND PROCESS FOR PRODUCTION THEREOF” (THE KITASATO INSTITUTE, priority 2006, dated 2007).
Values after ≈ are worked out from the molar mass of the structure shown. Like-named read-outs stand apart in the source and are kept apart here.

Experiments:
[1] = tested on: Jurkat cells; assay: Inhibitory action for G2 checkpoint using Jurkat cells (cell cycle by FACS); assay type: cell-based, human; conditions: for IC50: Homo sapiens; for selectivity: specificity to the G2 phase cells, Table 1; for differences between both concentrations: IC50 (col) versus IC50 (bleo)
Description: (§1) An assay method of G2 arrest activity with treatment of anticancer agent using cancer cells is performed according to the method of Suganuma et al. (Cancer Research, […]: 5887-5891, 1999).
Jurkat cells derived from human lymphoma were cultured in RPMI 1640 medium (a medium adding an inactivated fetal bovine serum (JRH Bioscience Inc.) 50 ml and a mixture 50 ml of penicillin (10,000 units/ml) and streptomycin (10 mg/ml) (Invitrogen Inc.) in RPMI 1640 (IWAKI Co., Ltd.) 500 ml) by using a 75 cm^3 culture flask. After centrifugation of the Jurkat cells at 1, 000 rpm for 10 minutes, the supernatant was removed by using aspirator to adjust the number of cells to be 5 × 10^5 cells/ml with addition of RPMI 1640 medium. Bleomycin (Nippon Kayaku Co., Ltd.) or colchicines (Sigma Inc.) was added to be the final concentration of 40 µM or 0.5 µM, respectively, into the cell suspension. The suspension was added into each well of 96 well multiplate (Corning Corp., the U.S.), which was previously air dried after adding FKI-2342A - F substances 200 µl (1 × 10^5 cells/well) in each well, and incubated at 37°C for 20 hours.
Cells after culturing for 20 hours were centrifuged at 1,000 rpm for 10 minutes, and the supernatant was removed by using aspirator. Krishan's reagent (trisodium citrate (Wako Pure Chemical Industries, Ltd.) […], IGEPALCA-630 (Sigma Inc.) 1.5 ml, ribonuclease A (Sigma Inc.) 10 mg and propydium iodide (Sigma Inc.) 25 mg dissolved in sterilized water 50.0 ml) […] was added to each well. The well was covered with aluminum foil for light shielding and allowed to stand at room temperature for 1 hour with gently shaking by the shaker to perform DNA staining. Measurement of cell cycle was performed by measuring 10,000 cells using FACS Caliber (Becton Dickinson Inc.) to calculate ratio of cells in sub G1, G1, S, and G2/M phase by using analytical software Ce 11 Quest.
(§2) Experimental results in relation to FKI-2342A substance - F substance were obtained by using the index of the G2/M phase cell. A concentration of substance wherein the number of cells at G2 phase is reduced to 50% when the number of cells arrested at G2 phase by treatment with bleomycin is set as 100%, is calculated as IC50 (bleo), and similarly a concentration of substance wherein the number of cells at M phase is reduced to 50% is calculated as IC50 (col), and the specificity to the G2 phase cells as the selectivity is shown in Table 1.

[2] = tested on: HCT-116 cells; assay: Inhibitory action for G2 checkpoint using HCT-116 cells (cell cycle by FACS); assay type: cell-based, human; conditions: for IC50: Homo sapiens, 24 hours; for Selectivity IC50(col) /IC50(bleo): Table 2
Description: as §1
A cell suspension (15 ml) of HCT-116 cells derived from human colon cancer, adjusted to 1.5 × 10^5 cells/ml with McCoy's medium, was cultured in McCoy's 5A medium (a medium adding an inactivated fetal bovine serum (FBS) […] and a mixture 5 ml of penicillin (10,000 units/ml) and streptomycin (10 mg/ml) in McCoy's 5A (Invitrogen Inc.) 500 ml) in a 75-cm^3 culture flask (Corning Corp., the U.S.) under the atmosphere of […] at 37°C, and a subinoculation was performed after 3 days.
HCT-116 cells (500 µl) adjusted to give 1.5×10^5 cells/ml. were added into each well of a 24-well microplate (IWAKI Co., Japan) and incubated at 37°C for 24 hours. Thereafter, the medium was removed and 250 µl of 27 µM bleomycin or that of 0.5 µM colcicine prepared with McCoy's 5A medium were added in each well, and FKI-2342A substance - FKI-2342F substance dissolved in 0.5% DMSO, each 250 µl, were added (final concentration: bleomycin 13 µM, colchicine 0.25 µM, and 0.25% DMSO). The plate was incubated under […] at 37°C for 24 hours. After the incubation, the supernatant was recovered in 1.5 ml Eppendorf tube and stored on ice. Cells on the plate were detached by adding trypsin-EDTA solution (150 µl) and culturing at 37°C for 10 minutes. Immediately after the cells were detached, 300 µl of the medium were added to denature the trypsin, and were mixed with the supernatant which was stored on the ice. The mixture was centrifuged at 1,000 rpm for 10 minutes, and the supernatant was removed by using the aspirator, then Krishan's reagent (200 µl) was added thereto, and after allowing to stand for 1 hour, measurement was performed by using FACS.
Measurement of cell cycle was performed by measuring 10,000 cells using FACS Caliber (Becton Dickinson Inc.) to calculate ratio of cells in sub G1, G1, S, and G2/M phase by using analytical software cell Quest.
as §2, with “concentration of substance, in which the number” for “concentration of substance wherein the number”, “with bleomycin is' set as” for “with bleomycin is set as”, “reduced to 50%, is calculated” for “reduced to 50% is calculated”, “shown in Table'2.” for “shown in Table 1.”

[3] = cells arrested at G2 phase by bleomycin 40 µM reduced to 50%, 20 hours, Table 1, read-out: IC50 bleomycin
[4] = cells at M phase (colchicine 0.5 µM) reduced to 50%, 20 hours, Table 1, read-out: IC50 colchicine
[5] = cells arrested at G2 phase by bleomycin 13 µM reduced to 50%, read-out: IC50 bleomycin
[6] = cells at M phase (colchicine 0.25 µM) reduced to 50%, read-out: IC50 colchicine
[7] = cells arrested at G2 phase by bleomycin reduced to 50%, read-out: IC50 (bleo)
[8] = cells at M phase (colchicine) reduced to 50%, read-out: IC50 (col)

Compound: C=C(C(=O)O)C(CCCC(=O)OC)C(=O)OC (centres unmarked) [A]
- IC50 [1, 3]: 100 µg/mL (≈ 409 µM)
- IC50 [1, 4]: 200 µg/mL (≈ 819 µM)
- selectivity [1]: 2
- IC50 [2, 5]: 120 µg/mL (≈ 491 µM)
- IC50 [2, 6]: 180 µg/mL (≈ 737 µM)
- Selectivity IC50(col) /IC50(bleo) [2]: 2

Compound: C=C(C(=O)O)C(CCCCCC(=O)OC)C(=O)O (centres unmarked) [B]
- IC50 [1, 3]: 100 µg/mL (≈ 387 µM)
- IC50 [1, 4]: 200 µg/mL (≈ 774 µM)
- selectivity [1]: 2
- IC50 [2, 5]: 120 µg/mL (≈ 465 µM)
- IC50 [2, 6]: 180 µg/mL (≈ 697 µM)
- Selectivity IC50(col) /IC50(bleo) [2]: 2

Compound: C=C(C(=O)O)C(CCCCCC(=O)OCC)C(=O)O (centres unmarked) [C]
- IC50 [1, 3]: 100 µg/mL (≈ 367 µM)
- IC50 [1, 4]: 200 µg/mL (≈ 734 µM)
- selectivity [1]: 2
- IC50 [2, 5]: 120 µg/mL (≈ 441 µM)
- IC50 [2, 6]: 180 µg/mL (≈ 661 µM)
- Selectivity IC50(col) /IC50(bleo) [2]: 2

Compound: C=C(C(=O)O)C(CCCCCC(=O)OC)C(=O)OC (centres unmarked) [D]
- IC50 [1, 3]: 25 µg/mL (≈ 91.8 µM)
- IC50 [1, 7]: 25 µg/mL (≈ 91.8 µM)
- IC50 [1, 4]: 175 µg/mL (≈ 643 µM)
- IC50 [1, 8]: 175 µg/mL (≈ 643 µM)
- differences between both concentrations [1]: 7 fold
- selectivity [1]: 7
- differences in a concentration ratio (IC50 (col) / IC50 (bleo)) [2]: 4 fold
- IC50 [2, 5]: 25 µg/mL (≈ 91.8 µM)
- IC50 [2, 6]: 100 µg/mL (≈ 367 µM)
- Selectivity IC50(col) /IC50(bleo) [2]: 7

Compound: C=C(C(=O)O)C(CCCCCCCC(=O)OC)C(=O)O (centres unmarked) [E]
- IC50 [1, 3]: 1.2 µg/mL (≈ 4.19 µM)
- IC50 [1, 7]: 1.2 µg/mL (≈ 4.19 µM)
- IC50 [1, 4]: 10 µg/mL (≈ 34.9 µM)
- IC50 [1, 8]: 10 µg/mL (≈ 34.9 µM)
- differences between both concentrations [1]: 8 fold
- selectivity [1]: 8
- differences in a concentration ratio (IC50 (col) / IC50 (bleo)) [2]: 10 fold
- IC50 [2, 5]: 2 µg/mL (≈ 6.99 µM)
- IC50 [2, 6]: 20 µg/mL (≈ 69.9 µM)
- Selectivity IC50(col) /IC50(bleo) [2]: 8

Compound: C=C(C(=O)O)C(CCCC(=O)OCC)C(=O)O (centres unmarked) [F]
- IC50 [1, 3]: 100 µg/mL (≈ 409 µM)
- IC50 [1, 4]: 200 µg/mL (≈ 819 µM)
- selectivity [1]: 2
- IC50 [2, 5]: 100 µg/mL (≈ 409 µM)
- IC50 [2, 6]: 180 µg/mL (≈ 737 µM)
- Selectivity IC50(col) /IC50(bleo) [2]: 2
